SMILES strings stand for the structures.

Among the data in the OPERA property sets (Mansouri et al. 2018) are logP values, retold here.

On to `CCN(C=Nc1ccn(C2CC(F)C(CO)O2)c(=O)n1)CC` (stereo not given), for which the logP came to 0.23. `CC(C)N(C=Nc1ccn(C2CC(F)C(CO)O2)c(=O)n1)C(C)C` (stereo not given) gave a lipophilicity (logP) of 1.14. `CCCN(/C=N/c1ccn([C@H]2CC[C@@H](CO)O2)c(=O)n1)CCC` yielded a logP of 0.95. This logP and that of the molecule before are within 0.2 log units of each other. `O=c1nc(/N=C/N2CCCCC2)ccn1[C@H]1CC[C@@H](CO)O1`: the log partition coefficient (logP) is 0.06. For `CC(C)N(C=Nc1ccn(C2CCC(CO)O2)c(=O)n1)C(C)C` (stereo not given), the logP was found to be 0.72. With `CN(C)C=Nc1ccn(C2CC(F)C(CO)O2)c(=O)n1` (stereo not given), the logP is -0.64. Regarding `O=c1nc(N=CN2CCCC2)ccn1C1CCC(CO)O1` (stereo not given), the log partition coefficient (logP) is -0.47. The result for `CCN(/C=N/c1ccn([C@H]2CC[C@@H](CO)O2)c(=O)n1)CC` reads -0.06. The result for `CN(C)C=Nc1ccn(C2CCC(CO)O2)c(=O)n1` (stereo not given) reads -0.95; that for `O=c1nc(N=CN2CCCC2)ccn1C1CC(F)C(CO)O1` (stereo not given), -0.16. `O=c1nc(N=CN2CCOCC2)ccn1C1CCC(CO)O1` (stereo not given) registered a logP of -0.97.

Molecule `O=c1nc(/N=C/N2CCCCC2)ccn1[C@H]1C[C@H](F)[C@@H](CO)O1` came in with a logP of 0.36. The result for `CCCN(C=Nc1ccn(C2CC(F)C(CO)O2)c(=O)n1)CCC` (stereo not given) reads 1.35; that for `O=c1nc(N=CN2CCOCC2)ccn1C1CC(F)C(CO)O1` (stereo not given), -0.68; that for `Nc1ccn([C@H]2C[C@H](F)[C@@H](CO)O2)c(=O)n1`, -0.89.

One may read the logP as a log measure of how a compound divides between an organic and an aqueous phase. A lower logP goes with a more hydrophilic compound.
